Test results taken from paper PMC11756168, “Drug-drug interaction between ensitrelvir and tacrolimus in a patient undergoing treatment for COVID-19: a case report” (Journal of Pharmaceutical Health Care and Sciences, 2025).
“Also recorded” adds a separate entry of the source.

How the values were obtained:
[1] = TAC blood level monitoring (Siemens Dimension EXL200, ACMIA method) in the patient; conditions: human
[2] = cited from earlier work
[3] = Laboratory parameters (Scr, ALT) in the patient; assay type: in vivo, human
[4] = Pharmacokinetics of TAC (literature); assay type: in vivo; conditions: human, blood; assumed, 1 L/kg at body weight 42 kg; read-out: volume of distribution (Vd) of TAC
[5] = One-compartment simulation of TAC levels with various F values; design: species or system human; conditions: for half-life: human, blood, oral, read-out: Estimated TAC half-life (converted)
Text: (§1) t1/2=0.693/ke Cmax=Ctrough+F*Dose/Vd
(§2) where C1 and C2 represent the TAC blood levels at times T1 and T2 in the same dosing interval (T2 > T1), respectively. Ctrough represents TAC blood levels immediately before administration and dose represents the TAC dose. The volume of distribution (Vd) was assumed to be 42 L (1 L/kg based on a body weight of 42 kg). If the Ctrough was unavailable, Ctrough was estimated using ke.
Next, we evaluated the duration of DDI using ensitrelvir. […] Consequently, when F was set to 0.125, the simulated TAC levels matched the measured levels at 7:00 on day 8 (Supplemental Table S1). The estimated F value of TAC (0.125) was similar to that reported in a previous report (0.25 ± 0.20), which indicates the limited effect of ensitrelvir on the intestinal absorption of TAC. […] These pharmacokinetic analyses indicate that the DDI effect of ensitrelvir gradually diminishes over 7–10 days after its discontinuation. […] Therefore, caution regarding DDI with ensitrelvir should be exercised for 7–10 days after discontinuation of ensitrelvir. Furthermore, in the case of irreversible CYP3A inhibition, the timing of CYP3A expression recovery varies among individuals. Therefore, TAC after ensitrelvir treatment should be restarted at a reduced dosage and its blood levels should be closely monitored.
^a The tacrolimus level was estimated using a one-compartment pharmacokinetics model for oral administration, without considering the absorption rate constant. For tacrolimus levels after day 8, only values predicted with F = 0.125 are shown.

[6] = One-compartment calculation of TAC elimination half-life from consecutive blood levels; assay type: in vivo; conditions: human, po, 1.5 mg, read-out: calculated t1/2 of TAC (converted)
Protocol: Assuming a one-compartment model, the elimination rate constant (ke), elimination half-life (t1/2), and maximum plasma concentration (Cmax) of TAC were calculated as follows: ke=lnC1/C2/T2-T1
as §1, §2

[7] = test system: breast cancer resistance protein (BCRP); design: method as in PMID 37043676, PMID 37171749; conditions: cited from earlier work
[8] = Pharmacokinetics of ensitrelvir (literature); assay type: in vivo, human; conditions: suggested from t1/2 51.4 h
CYP3A [9] = test system: CYP3A
P-glycoprotein (P-gp) = test system: P-glycoprotein (P-gp); design: method as in PMID 37043676, PMID 37171749; conditions: cited from earlier work
[10] = cited from earlier work; remark: listed apart in the source
P-gp = test system: P-gp; design: method as in PMID 37043676; conditions: cited from earlier work
[11] = CT imaging of the lungs in the patient; assay type: in vivo, human; conditions: day 18, after ensitrelvir in combination with remdesivir
CYP3A and P-gp = conditions: cited from earlier work
SARS-CoV-2 = test: SARS-CoV2 PCR cycle threshold (Ct) in the patient; assay type: in vivo
Protocol: On the day of admission, the patient was started on a five-day course of remdesivir (200 mg IV once, followed by 100 mg IV every 24 h for 4 days). The patient was also administered corticosteroid (day -30 to -21, dexamethasone 6 mg PO, once daily after breakfast; day -20 to -17, prednisolone 30 mg PO, once daily after breakfast). On day -23, baricitinib (2 mg PO, once daily after breakfast for 6 days) was administered. On day -17, methylprednisolone (1,000 mg IV, once daily for 5 days) was administered, followed by dexamethasone (6 mg IV, once daily after breakfast). The cycle threshold (Ct) value from the SARS-CoV2 PCR after treatment ([…]) was 25.73, indicating persistent viral presence; therefore, a second five-day course of remdesivir was administered. On day -13, tocilizumab (360 mg IV, once daily) was administered. […] Consequently, a third course of remdesivir was initiated on day -2 (200 mg IV once, followed by 100 mg IV daily for 9 days). On day 0, the patient was started on ensitrelvir treatment (375 mg PO once, followed by 125 mg PO for 4 days) in combination with remdesivir. At the time of the start of ensitrelvir therapy (day 0), the patient was taking the following medications: TAC (1.5 mg PO, once daily after dinner), dexamethasone (6 mg IV, once daily), sulfamethoxazole/trimethoprim (400 mg/80 mg PO, once daily after breakfast), rosuvastatin (5 mg PO, once daily after breakfast), nicorandil (5 mg PO, 3 times daily after meals), aspirin (100 mg PO, once daily after breakfast), esomeprazole (20 mg PO, once daily after breakfast), rivastigmine patch (18 mg, once daily), and subcutaneous denosumab (60 mg, every six months). The patient had received a COVID-19 vaccine approximately one year ago. The patient had no supplements or over-the-counter drugs. Grapefruit was not offered during the hospital stay. Before the start of ensitrelvir therapy, a clinical pharmacist informed the attending physician regarding the potential DDI between ensitrelvir and TAC or rosuvastatin (BCRP substrate) and recommended avoiding the concomitant use. Consequently, TAC was discontinued from the day before the start of ensitrelvir (day -1), and TAC blood levels were frequently monitored using a Siemens Dimension EXL200 with Flex Cartridge Tacrolimus (ACMIA method, Siemens). Rosuvastatin treatment was discontinued on day 0. Given that ensitrelvir is metabolized by CYP3A [17], dexamethasone, which reportedly induces CYP3A [18], was replaced with methylprednisolone on day 1.

[12] = test system: Cytochrome P450 3A (CYP3A); conditions: cited from earlier work
CYP3A [13] = conditions: ensitrelvir co-administration; cited from earlier work

`C=CC[C@@H]1/C=C(\C)C[C@H](C)C[C@H](OC)[C@H]2O[C@@](O)(C(=O)C(=O)N3CCCC[C@H]3C(=O)O[C@H](/C(C)=C/[C@@H]3CC[C@@H](O)[C@H](OC)C3)[C@H](C)[C@@H](O)CC1=O)[C@H](C)C[C@@H]2OC` [TAC, Tacrolimus] showed a concentration at 11 h ([1]; oral) of 5.1 ng/mL, a concentration at 12 h ([1]; oral, 1 mg) of 6.5 ng/mL and a concentration at 20 h ([1]; oral, 1 mg) of 3.7 ng/mL. For the same molecule, the concentration at 21.5 h ([1]; oral, 1.5 mg) was 3.6 ng/mL, the concentration at 35.5 h ([1]; oral, 1.5 mg) was 2.7 ng/mL and the concentration at 83.5 h ([1]; oral, 1.5 mg) was 1.7 ng/mL. It also gave a concentration at 155.5 h ([1]; oral, 1.5 mg) of 1.1 ng/mL, a concentration at 5 days ([1]; oral, 2 mg) of 6.6 ng/mL and a concentration at 36 h ([1]; po, 0.2 mg) of 1 ng/mL. The concentration at 12 h ([1]; po, 1 mg) was 3.9 ng/mL, the “volume of distribution (Vd) of TAC” value ([2]; assumed) was 1 L/kg and the “F value of TAC in a previous report” value [2] was 0.25 ± 0.20. For the same molecule, the “reported t1/2 of TAC” value [2] was 32 h, the Scr levels ([3]; TAC maintained at 1.5 mg daily, normal range 0.75—1.0 mg/dL) was “within normal range” and the Vd [4] was 42 L. The “estimated F value of TAC” value ([5]; after ensitrelvir administration, simulated levels matched measured level at 7:00 on day 8) was 0.125, the half-life ([5]; 1 mg, day 8 to 12, assuming bioavailability 0.125) was 2390 min and the half-life ([5]; 1 mg, day 12 to 14, assuming bioavailability 0.125) was 1400 min. It also gave a half-life ([5]; Day5, 7:00 to Day8, 7:00, hypothesized to continue from days 2-5 until day 8) of 6880 min, a half-life ([6]; day 0 to 2, under ensitrelvir) of 3 days and a half-life ([6]; day 2 to 5, under ensitrelvir) of 4.78 days. For the same molecule, the half-life ([6]; day -1 to 0, before ensitrelvir) was 1.4 days.

For `Cn1cnc(Cn2c(=O)[nH]/c(=N\c3cc4cn(C)nc4cc3Cl)n(Cc3cc(F)c(F)cc3F)c2=O)n1` [ensitrelvir, Ensitrelvir], the “inhibition of BCRP” value [7] is given as “strongly inhibits”, the “time required to clear ensitrelvir from the body” value [8] is given as 7 to 8 days and the “time over which the DDI effect diminished/resolved” value (CYP3A [9]; after discontinuation of ensitrelvir) is given as 7 to 10 days. The “increase in the AUC of TAC by inhibition of CYP3A in the liver” value (CYP3A [9]; inferred from t1/2 prolongation) was “threefold increase”, the “inhibition of P-gp” value (P-glycoprotein (P-gp)) was “strongly inhibits” and the half-life of ensitrelvir [10] was “approximately 50 h”. The Scr level ([3]; during ensitrelvir treatment) was “remained within normal ranges”, the “alanine aminotransferase (ALT) level” value ([3]; during ensitrelvir treatment) was “remained within normal ranges” and the “effect on AUC of digoxin (P-gp substrate)” value (P-gp) was “increased the AUC of digoxin”. The “CT imaging of lung fields” value [11] was “improved inflammation in both lung fields”, the “increase in TAC trough/blood levels with concurrent ensitrelvir” value (CYP3A and P-gp) was “approximately threefold; also recorded: approximate three-fold increase” and the “SARS-CoV-2 PCR Ct value” (SARS-CoV-2; day 0, start of ensitrelvir in combination with remdesivir) was 25.88. For the same molecule, the “SARS-CoV-2 PCR Ct value” (SARS-CoV-2; day 5, ensitrelvir in combination with remdesivir) was 30.03, the “SARS-CoV-2 PCR Ct value” (SARS-CoV-2; day 12, after ensitrelvir in combination with remdesivir) was 34.36 and the “SARS-CoV-2 PCR Ct value” (SARS-CoV-2; day 19, after ensitrelvir in combination with remdesivir) was 34.89. The “inhibition of CYP3A” value [12] was “strongly inhibits”, the “manner of CYP3A inhibition” value [12] was “time-dependent and irreversible manner” and the “increase of AUC of midazolam” value (CYP3A [13]) was 6.7 fold. For the same molecule, the “increase of t1/2 of midazolam” value (CYP3A [13]) was 2.3 fold.

For `CCC(CC)COC(=O)[C@H](C)N[P@](=O)(OC[C@H]1O[C@@](C#N)(c2ccc3c(N)ncnn23)[C@H](O)[C@@H]1O)Oc1ccccc1` [remdesivir], the “SARS-CoV2 PCR Ct value” (SARS-CoV-2; after first five-day course of remdesivir, day 15 (so in the source)) was 25.73 and the “SARS-CoV2 PCR Ct value” (SARS-CoV-2; day -7, after second five-day course of remdesivir) was 26.18.
